From ChEMBL document CHEMBL1127628, “A new arylpiperazine antipsychotic with high D2/D3/5-HT1A/alpha 1A-adrenergic affinity and a low potential for extrapyramidal effects” (J Med Chem, 1994)
Values belong to the compound of their own block, whether it stands above or below them.

Tests used:
[1] = molecular target: T1, Adrenergic receptor alpha-2 (Rattus norvegicus, UniProt P22086+P19328+P22909)
T1 sequence (P22086 whole entry): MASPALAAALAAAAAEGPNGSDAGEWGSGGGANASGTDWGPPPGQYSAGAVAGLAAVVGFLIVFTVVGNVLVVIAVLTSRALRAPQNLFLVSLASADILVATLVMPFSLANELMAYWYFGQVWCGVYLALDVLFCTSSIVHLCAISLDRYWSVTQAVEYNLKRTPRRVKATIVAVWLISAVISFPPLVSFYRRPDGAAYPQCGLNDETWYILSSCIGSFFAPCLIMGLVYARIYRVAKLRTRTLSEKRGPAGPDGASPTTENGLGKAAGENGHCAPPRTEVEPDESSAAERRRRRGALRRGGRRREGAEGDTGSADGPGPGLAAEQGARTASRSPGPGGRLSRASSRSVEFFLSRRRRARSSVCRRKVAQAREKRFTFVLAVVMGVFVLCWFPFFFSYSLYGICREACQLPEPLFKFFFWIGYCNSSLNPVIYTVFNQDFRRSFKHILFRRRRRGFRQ
T1 sequence (P19328 whole entry): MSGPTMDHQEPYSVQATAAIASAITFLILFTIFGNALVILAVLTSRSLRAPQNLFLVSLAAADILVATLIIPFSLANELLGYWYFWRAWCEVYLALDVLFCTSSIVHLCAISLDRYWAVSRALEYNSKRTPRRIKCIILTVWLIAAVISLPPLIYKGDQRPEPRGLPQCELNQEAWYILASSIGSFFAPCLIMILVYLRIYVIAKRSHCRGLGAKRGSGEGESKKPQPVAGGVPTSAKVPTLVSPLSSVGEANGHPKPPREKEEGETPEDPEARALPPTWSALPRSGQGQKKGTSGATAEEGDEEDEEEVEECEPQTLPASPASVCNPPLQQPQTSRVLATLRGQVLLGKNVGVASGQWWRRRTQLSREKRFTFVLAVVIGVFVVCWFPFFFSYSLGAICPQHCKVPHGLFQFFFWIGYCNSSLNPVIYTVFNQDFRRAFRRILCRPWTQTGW
T1 sequence (P22909 whole entry): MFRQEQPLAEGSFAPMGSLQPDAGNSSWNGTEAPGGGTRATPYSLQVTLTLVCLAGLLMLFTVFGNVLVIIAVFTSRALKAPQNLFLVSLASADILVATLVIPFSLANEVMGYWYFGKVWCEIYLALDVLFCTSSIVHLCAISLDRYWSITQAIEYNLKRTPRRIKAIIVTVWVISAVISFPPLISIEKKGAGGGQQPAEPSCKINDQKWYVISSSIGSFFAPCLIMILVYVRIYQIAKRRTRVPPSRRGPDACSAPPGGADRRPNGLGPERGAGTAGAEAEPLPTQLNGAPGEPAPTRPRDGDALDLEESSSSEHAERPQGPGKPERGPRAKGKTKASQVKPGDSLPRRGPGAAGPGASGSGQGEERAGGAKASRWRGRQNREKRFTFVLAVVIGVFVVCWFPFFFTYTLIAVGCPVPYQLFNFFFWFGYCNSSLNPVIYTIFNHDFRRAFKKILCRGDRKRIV
Description: Binding affinity towards alpha-2 adrenergic receptors in rat brain synaptosomal preparations

[2] = molecular target: T2, Adrenergic receptor alpha-1 (Rattus norvegicus, UniProt P15823+P23944+P43140); experiment: Binding affinity towards alpha-1 adrenergic receptors in rat brain synaptosomal preparations; assay type: tissue-based
T2 sequence (P15823 whole entry): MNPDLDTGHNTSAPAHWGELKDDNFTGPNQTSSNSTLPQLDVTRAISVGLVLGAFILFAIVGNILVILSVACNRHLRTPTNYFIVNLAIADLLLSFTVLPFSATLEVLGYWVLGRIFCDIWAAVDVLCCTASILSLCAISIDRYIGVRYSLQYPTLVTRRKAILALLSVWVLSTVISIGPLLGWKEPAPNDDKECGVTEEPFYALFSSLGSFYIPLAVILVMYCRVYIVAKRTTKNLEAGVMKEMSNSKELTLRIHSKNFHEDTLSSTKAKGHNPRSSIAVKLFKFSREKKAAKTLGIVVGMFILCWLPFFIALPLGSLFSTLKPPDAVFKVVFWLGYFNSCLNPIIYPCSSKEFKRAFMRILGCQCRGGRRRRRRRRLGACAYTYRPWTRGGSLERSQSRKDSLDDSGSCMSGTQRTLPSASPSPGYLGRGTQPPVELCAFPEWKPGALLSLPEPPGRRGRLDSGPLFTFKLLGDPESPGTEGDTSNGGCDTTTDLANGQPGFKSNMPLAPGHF
T2 sequence (P23944 whole entry): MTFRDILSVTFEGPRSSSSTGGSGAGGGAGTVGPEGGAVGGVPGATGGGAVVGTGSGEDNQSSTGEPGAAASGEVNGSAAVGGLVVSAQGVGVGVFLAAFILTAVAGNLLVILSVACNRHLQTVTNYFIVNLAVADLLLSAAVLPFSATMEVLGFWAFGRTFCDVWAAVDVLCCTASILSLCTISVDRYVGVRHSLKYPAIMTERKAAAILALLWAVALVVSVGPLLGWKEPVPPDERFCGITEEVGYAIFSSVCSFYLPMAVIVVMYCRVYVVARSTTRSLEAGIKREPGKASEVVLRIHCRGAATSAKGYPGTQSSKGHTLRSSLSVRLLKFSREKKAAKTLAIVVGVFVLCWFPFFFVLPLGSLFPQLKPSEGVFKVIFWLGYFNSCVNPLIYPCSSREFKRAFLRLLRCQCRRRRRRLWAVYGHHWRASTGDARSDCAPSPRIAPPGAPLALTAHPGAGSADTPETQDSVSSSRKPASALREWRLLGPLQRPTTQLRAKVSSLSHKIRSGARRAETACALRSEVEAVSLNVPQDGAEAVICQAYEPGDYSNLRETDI
T2 sequence (P43140 whole entry): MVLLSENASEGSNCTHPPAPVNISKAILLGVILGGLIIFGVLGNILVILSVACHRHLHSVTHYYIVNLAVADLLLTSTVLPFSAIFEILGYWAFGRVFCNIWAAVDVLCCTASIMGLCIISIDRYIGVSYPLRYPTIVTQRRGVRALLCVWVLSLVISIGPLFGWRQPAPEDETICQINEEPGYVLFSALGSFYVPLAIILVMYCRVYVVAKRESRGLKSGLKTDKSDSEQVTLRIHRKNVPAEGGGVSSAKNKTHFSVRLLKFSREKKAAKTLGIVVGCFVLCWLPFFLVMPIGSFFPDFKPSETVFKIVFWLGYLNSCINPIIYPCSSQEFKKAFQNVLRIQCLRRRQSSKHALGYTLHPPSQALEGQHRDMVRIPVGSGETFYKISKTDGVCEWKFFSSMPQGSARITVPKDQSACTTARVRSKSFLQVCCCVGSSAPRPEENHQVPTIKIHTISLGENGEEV

D(2) dopamine receptor = D(2) dopamine receptor (Rattus norvegicus, UniProt P61169); experiment: Binding affinity towards dopamine D2 receptors in rat brain synaptosomal preparations; assay type: tissue-based
D(2) dopamine receptor, sequence (P61169 whole entry): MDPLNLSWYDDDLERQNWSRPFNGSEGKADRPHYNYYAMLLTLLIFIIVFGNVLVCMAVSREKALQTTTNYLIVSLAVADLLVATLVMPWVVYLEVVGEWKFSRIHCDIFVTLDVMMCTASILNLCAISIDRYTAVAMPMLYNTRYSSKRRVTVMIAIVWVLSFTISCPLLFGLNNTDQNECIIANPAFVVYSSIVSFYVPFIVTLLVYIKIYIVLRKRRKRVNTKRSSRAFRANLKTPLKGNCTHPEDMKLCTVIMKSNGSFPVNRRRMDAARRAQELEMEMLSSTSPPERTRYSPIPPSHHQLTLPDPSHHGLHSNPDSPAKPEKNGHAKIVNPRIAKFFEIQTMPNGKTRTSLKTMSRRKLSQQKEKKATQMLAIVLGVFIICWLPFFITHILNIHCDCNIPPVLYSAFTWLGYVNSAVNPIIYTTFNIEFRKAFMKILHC

[3] = molecular target: T3, 5-hydroxytryptamine receptor 1A (Rattus norvegicus, UniProt P19327)
T3 sequence (P19327 whole entry): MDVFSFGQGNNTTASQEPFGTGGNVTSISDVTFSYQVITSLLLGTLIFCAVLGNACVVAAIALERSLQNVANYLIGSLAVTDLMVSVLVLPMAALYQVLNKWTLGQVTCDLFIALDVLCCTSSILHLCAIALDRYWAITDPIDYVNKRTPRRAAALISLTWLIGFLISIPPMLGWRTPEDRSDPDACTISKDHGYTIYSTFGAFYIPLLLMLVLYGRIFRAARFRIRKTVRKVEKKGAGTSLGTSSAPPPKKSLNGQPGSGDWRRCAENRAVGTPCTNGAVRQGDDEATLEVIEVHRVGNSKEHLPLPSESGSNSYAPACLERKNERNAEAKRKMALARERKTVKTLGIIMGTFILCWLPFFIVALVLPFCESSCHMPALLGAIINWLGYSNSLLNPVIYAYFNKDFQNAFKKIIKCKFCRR
Description: Binding affinity towards 5-hydroxytryptamine 1A receptor of rat brain synaptosomal preparations

Rattus norvegicus [4] = organism: Rattus norvegicus; experiment: The compound was evaluated for the conditioned avoidance response data (CAR) in rat intra peritoneally; assay type: functional
[5] = molecular target: 5-hydroxytryptamine receptor 1B (Rattus norvegicus, UniProt P28564); experiment: Binding affinity towards 5-hydroxytryptamine 1B receptor
5-hydroxytryptamine receptor 1B, sequence (P28564 whole entry): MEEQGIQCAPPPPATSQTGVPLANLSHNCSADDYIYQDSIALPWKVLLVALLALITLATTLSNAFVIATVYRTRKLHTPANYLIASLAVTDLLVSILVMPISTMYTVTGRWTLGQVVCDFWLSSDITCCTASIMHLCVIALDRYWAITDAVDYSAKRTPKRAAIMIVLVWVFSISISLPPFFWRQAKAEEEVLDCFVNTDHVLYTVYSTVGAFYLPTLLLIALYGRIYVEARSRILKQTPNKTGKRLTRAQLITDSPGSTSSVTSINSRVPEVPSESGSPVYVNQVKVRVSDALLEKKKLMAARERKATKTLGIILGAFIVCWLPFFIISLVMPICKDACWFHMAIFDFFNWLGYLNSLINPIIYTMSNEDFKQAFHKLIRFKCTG

[6] = molecular target: Serotonin 2 (5-HT2) receptor (Rattus norvegicus, UniProt P30994+P08909+P14842); experiment: Binding affinity towards 5-hydroxytryptamine 2 receptor; assay type: protein assay
[7] = Partition coefficient (logP); assay type: physicochemical; conditions: octanol/water
Canis familiaris = experiment: The compound is evaluated for inhibition of apomorphine induced emesis in dogs after peroral administration; assay type: functional, Canis lupus familiaris
D(1A) dopamine receptor = D(1A) dopamine receptor (Homo sapiens, UniProt P21728); experiment: Binding affinity towards dopamine receptor D1 (human clone)
D(1A) dopamine receptor, sequence (P21728 whole entry): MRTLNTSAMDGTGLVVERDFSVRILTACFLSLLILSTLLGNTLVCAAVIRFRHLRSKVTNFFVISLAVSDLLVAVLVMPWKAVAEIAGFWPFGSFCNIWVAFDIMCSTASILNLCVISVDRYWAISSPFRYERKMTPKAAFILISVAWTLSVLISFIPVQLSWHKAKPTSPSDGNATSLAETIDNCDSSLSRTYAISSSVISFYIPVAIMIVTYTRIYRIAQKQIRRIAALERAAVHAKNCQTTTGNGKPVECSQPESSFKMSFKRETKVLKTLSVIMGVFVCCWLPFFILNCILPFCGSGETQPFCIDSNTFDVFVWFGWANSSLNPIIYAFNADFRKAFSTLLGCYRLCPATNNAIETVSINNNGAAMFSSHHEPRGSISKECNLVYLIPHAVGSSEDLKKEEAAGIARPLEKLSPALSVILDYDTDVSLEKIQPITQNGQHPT

D(1B) dopamine receptor = D(1B) dopamine receptor (Rattus norvegicus, UniProt P25115); experiment: Binding affinity towards Dopamine receptor D5 (rat clone)
D(1B) dopamine receptor, sequence (P25115 whole entry): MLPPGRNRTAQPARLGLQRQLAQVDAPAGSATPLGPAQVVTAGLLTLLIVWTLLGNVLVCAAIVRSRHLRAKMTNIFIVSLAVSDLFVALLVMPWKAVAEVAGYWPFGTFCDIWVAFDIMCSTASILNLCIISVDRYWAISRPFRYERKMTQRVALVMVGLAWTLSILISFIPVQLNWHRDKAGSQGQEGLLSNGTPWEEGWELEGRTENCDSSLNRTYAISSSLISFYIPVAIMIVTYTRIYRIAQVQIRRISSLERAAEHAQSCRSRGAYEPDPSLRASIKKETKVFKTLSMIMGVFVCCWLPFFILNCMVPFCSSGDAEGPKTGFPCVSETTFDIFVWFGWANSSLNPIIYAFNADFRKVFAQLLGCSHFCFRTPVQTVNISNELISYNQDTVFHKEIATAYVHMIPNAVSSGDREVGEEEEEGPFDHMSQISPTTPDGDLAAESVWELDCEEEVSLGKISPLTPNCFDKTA

D(3) dopamine receptor = D(3) dopamine receptor (Rattus norvegicus, UniProt P19020); experiment: Binding affinity towards baculovirus expressed rat dopamine D3 receptors
D(3) dopamine receptor, sequence (P19020 whole entry): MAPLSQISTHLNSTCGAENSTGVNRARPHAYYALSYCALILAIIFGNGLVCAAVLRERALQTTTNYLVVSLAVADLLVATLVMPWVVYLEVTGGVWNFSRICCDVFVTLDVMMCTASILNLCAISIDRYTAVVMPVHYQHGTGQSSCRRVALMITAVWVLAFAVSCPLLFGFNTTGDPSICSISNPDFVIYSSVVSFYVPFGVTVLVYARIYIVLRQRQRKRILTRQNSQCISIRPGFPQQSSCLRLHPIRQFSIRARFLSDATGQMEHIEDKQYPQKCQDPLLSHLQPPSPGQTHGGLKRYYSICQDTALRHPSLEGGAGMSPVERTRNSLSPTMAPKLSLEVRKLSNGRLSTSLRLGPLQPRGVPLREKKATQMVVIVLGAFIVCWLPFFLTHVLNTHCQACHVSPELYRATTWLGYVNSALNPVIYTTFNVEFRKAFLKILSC

Mus musculus = experiment: The compound is evaluated for inhibition of apomorphine induced climbing behavior in mice after peroral administration; assay type: functional; conditions: po
[8] = molecular target: Muscarinic acetylcholine receptor; experiment: Binding affinity towards muscarinic receptors; assay type: protein assay, Rattus norvegicus
Rattus norvegicus [9] = experiment: The compound is evaluated for inhibition of 8-OH-DPAT induced reciprocal forepaw treading in reserpinized rats after intraperitoneal administration; assay type: functional; conditions: ip
Rattus norvegicus [10] = experiment: The compound was evaluated for the conditioned avoidance response data (CAR) in rat intravenous administration at 0.66 mg/kg concentration; assay type: functional
Rattus norvegicus [11] = experiment: The compound was evaluated for the conditioned avoidance response data (CAR) in rat peroral administration; assay type: functional; conditions: po
Rattus norvegicus [12] = experiment: The compound is evaluated for induction of catalepsy in rats at a dose of 100 mg/kg after peroral administration; assay type: functional; conditions: route oral
[13] = molecular target: Sigma non-opioid intracellular receptor 1 (Rattus norvegicus, UniProt Q9R0C9); experiment: Binding affinity towards sigma receptors
Sigma non-opioid intracellular receptor 1, sequence (Q9R0C9 whole entry): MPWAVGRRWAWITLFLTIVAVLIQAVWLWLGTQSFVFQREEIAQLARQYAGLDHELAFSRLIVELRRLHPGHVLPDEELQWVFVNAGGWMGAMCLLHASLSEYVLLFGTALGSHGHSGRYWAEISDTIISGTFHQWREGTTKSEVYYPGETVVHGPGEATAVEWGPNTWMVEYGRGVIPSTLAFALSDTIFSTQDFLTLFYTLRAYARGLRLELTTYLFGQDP

Ki [1]: 1 µM
SMILES: CC(C)Oc1ccccc1N1CCN(Cc2ccc(CN3CCCCC3=O)cc2)CC1

Ki [2]: 0.003 µM
Ki (D(2) dopamine receptor): 0.1 µM
Ki [3]: 0.56 µM
SMILES: CC(C)Oc1ccccc1N1CCN(Cc2ccc(C(=O)N3CCCCC3)cc2)CC1

SMILES: CN1CCN(C2=Nc3cc(Cl)ccc3Nc3ccccc32)CC1 [CLOZAPINE]
ED50 (Rattus norvegicus [4]): 4 mg/kg

SMILES: CC(C)Oc1ccccc1N1CCN(Cc2ccccc2C(=O)N2CCCCC2)CC1
Ki [2]: 0.22 µM
Ki (D(2) dopamine receptor): 0.037 µM
Ki [3]: 0.0068 µM
Ki [1]: 0.016 µM

SMILES: CC(C)Oc1ccccc1N1CCN(Cc2cccc(C(=O)N3CCCCC3)c2)CC1 [MAZAPERTINE]
Ki [5]: 2.88 µM
Ki [6]: 0.165 µM
logP [7]: 4
ED50 (Canis familiaris): 0.038 mg/kg
Ki (D(1A) dopamine receptor): > 5 µM
Ki (D(1B) dopamine receptor): > 5 µM
Ki (D(3) dopamine receptor): 0.0018 µM
ED50 (Mus musculus): 0.6 mg/kg
Ki [8]: > 5 µM
ED50 (Rattus norvegicus [9]): 5.24 mg/kg
ED50 (Rattus norvegicus [10]): 0.23 mg/kg
ED50 (Rattus norvegicus [11]): 13.8 mg/kg
Catalepsy (Rattus norvegicus [12]): 30%
Ki [13]: > 5 µM
Ki [1]: 0.017 µM
